Common to all, as to type: biochemical
One assay concerns the target Jak2 (a.a. 828-1132) (Homo sapiens (Human), UniProt O60674). The assay can be described thus: In vitro JAK kinase assay (HTRF, phosphorylation of a biotinylated peptide), JAK2. Particulars: measured at 1 mM ATP. A digest of the protocol: (§1)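 N-terminal His-tagged catalytic domains, baculovirus-expressed in insect cells, phosphorylated a biotinylated peptide for 1 hr at room temperature. EDTA stop was followed by SA-APC and Eu-Py20 antibody for 40 minutes, with phosphopeptide read by HTRF.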
A general note: Time-resolved FRET reads energy transfer from a long-lived donor to a nearby acceptor.

Assay [1] deals with human JAK1 (a.a. 837-1142) (Homo sapiens, UniProt P23458). The assay can be described thus: In vitro JAK kinase assay (HTRF, phosphorylation of a biotinylated peptide), JAK1. The following applies: measured at 1 mM ATP. The gist of the method: as §1
Assay [2] addresses human JAK1 (a.a. 837-1142). Described as above. The following applies: ratio of JAK2 IC50 to JAK1 IC50, measured at 1 mM ATP. A digest of the protocol:
as §1

Sequence of Jak2 (a.a. 828-1132) (O60674 828-1132): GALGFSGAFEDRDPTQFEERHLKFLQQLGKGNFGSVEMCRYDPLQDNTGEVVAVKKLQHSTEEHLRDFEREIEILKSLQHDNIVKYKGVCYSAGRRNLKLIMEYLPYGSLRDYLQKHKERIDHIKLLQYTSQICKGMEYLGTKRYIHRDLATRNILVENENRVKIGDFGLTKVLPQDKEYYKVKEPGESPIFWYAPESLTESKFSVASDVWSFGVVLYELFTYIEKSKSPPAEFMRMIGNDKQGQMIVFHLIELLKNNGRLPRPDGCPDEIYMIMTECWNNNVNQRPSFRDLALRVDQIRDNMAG

Usually IC50 stands for the concentration that inhibits the measured activity by half. Read a high IC50 as weaker potency. With `N#CCC1(n2cc(-c3c(F)cnc4[nH]ccc34)cn2)CN(C2CCN(C(=O)c3cc(F)cc(C#N)c3)CC2)C1` [Example 316, 3-[(4-{3-(cyanomethyl)-3-[4-(5-fluoro-1H-pyrrolo[2,3-b]pyridin-4-yl)-1H-pyrazol-1-yl]azetidin-1-yl}piperidin-1-yl)carbonyl]-5-fluorobenzonitrile], the IC50 against Jak2 (a.a. 828-1132) is 10 to 50 nM; in assay [1], no more than 5 nM. Moreover, the “IC50 Ratio JAK2/JAK1” value in assay [2] was 9.5.
Regarding `N#CCC1(n2cc(-c3c(F)cnc4[nH]ccc34)cn2)CN(C2CCN(C(=O)c3ccc(C#N)cc3F)CC2)C1` [Example 317, 4-[(4-{3-(cyanomethyl)-3-[4-(5-fluoro-1H-pyrrolo[2,3-b]pyridin-4-yl)-1H-pyrazol-1-yl]azetidin-1-yl}piperidin-1-yl)carbonyl]-3-fluorobenzonitrile], the results for the IC50 (at Jak2 (a.a. 828-1132); in assay [1]) were 10 to 50 nM and no more than 5 nM, respectively. Further, the “IC50 Ratio JAK2/JAK1” value in assay [2] was 4.5.
As for `N#CCC1(n2cc(-c3c(F)cnc4[nH]ccc34)cn2)CN(C2CCN(C(=O)c3ccc(F)c(C#N)c3)CC2)C1` [Example 318, 5-[(4-{3-(cyanomethyl)-3-[4-(5-fluoro-1H-pyrrolo[2,3-b]pyridin-4-yl)-1H-pyrazol-1-yl]azetidin-1-yl}piperidin-1-yl)carbonyl]-2-fluorobenzonitrile], the IC50 lay within 10 to 50 nM against Jak2 (a.a. 828-1132) and 5 to 20 nM in assay [1]. In addition, the “IC50 Ratio JAK2/JAK1” value in assay [2] is listed as 4.7.
In the same order, the values of `N#CCC1(n2cc(-c3c(F)cnc4[nH]ccc34)cn2)CN(C2CCN(C(=O)c3ccc(F)cn3)CC2)C1` [Example 319, {1-{1-[(5-fluoropyridin-2-yl)carbonyl]piperidin-4-yl}-3-[4-(5-fluoro-1H-pyrrolo[2,3-b]pyridin-4-yl)-1H-pyrazol-1-yl]azetidin-3-yl}acetonitrile] are 10 to 50 nM, no more than 5 nM and 4.0.
Taken in the same sequence, the figures for `N#CCC1(n2cc(-c3c(F)cnc4[nH]ccc34)cn2)CN(C2CCN(C(=O)c3ccncc3F)CC2)C1` [Example 320, {1-[1-(3-fluoroisonicotinoyl)piperidin-4-yl]-3-[4-(5-fluoro-1H-pyrrolo[2,3-b]pyridin-4-yl)-1H-pyrazol-1-yl]azetidin-3-yl}acetonitrile] were 10 to 50 nM, no more than 5 nM and 2.8.
In the case of `N#CCC1(n2cc(-c3c(F)cnc4[nH]ccc34)cn2)CN(C2CCN(C(=O)c3c(F)cncc3F)CC2)C1` [Example 321, {1-[1-(3,5-difluoroisonicotinoyl)piperidin-4-yl]-3-[4-(5-fluoro-1H-pyrrolo[2,3-b]pyridin-4-yl)-1H-pyrazol-1-yl]azetidin-3-yl}acetonitrile], the concentration for half-maximal inhibition (IC50) at Jak2 (a.a. 828-1132) is 10 to 50 nM; in assay [1] it was no more than 5 nM. Moreover, the “IC50 Ratio JAK2/JAK1” value in assay [2] came out at 3.0.
Turning to `N#CCC1(n2cc(-c3c(F)cnc4[nH]ccc34)cn2)CN(C2CCN(C(=O)c3ccc(O)c(F)c3)CC2)C1` [Example 322, {1-[1-(3-fluoro-4-hydroxybenzoyl)piperidin-4-yl]-3-[4-(5-fluoro-1H-pyrrolo[2,3-b]pyridin-4-yl)-1H-pyrazol-1-yl]azetidin-3-yl}acetonitrile], the results for the IC50 (on Jak2 (a.a. 828-1132); in assay [1]) were no more than 10 nM and no more than 5 nM, respectively. Also, in assay [2], the “IC50 Ratio JAK2/JAK1” value was 4.7.
Take `N#CCC1(n2cc(-c3c(F)cnc4[nH]ccc34)cn2)CN(C2CCN(C(=O)c3ccc(O)cc3F)CC2)C1` [Example 323, {1-[1-(2-fluoro-4-hydroxybenzoyl)piperidin-4-yl]-3-[4-(5-fluoro-1H-pyrrolo[2,3-b]pyridin-4-yl)-1H-pyrazol-1-yl]azetidin-3-yl}acetonitrile]: the IC50 on Jak2 (a.a. 828-1132) was no more than 10 nM; in assay [1], no more than 5 nM. Moreover, the “IC50 Ratio JAK2/JAK1” value in assay [2] came out at 5.0.
Taken in the same sequence, the figures for `N#CCC1(n2cc(-c3c(F)cnc4[nH]ccc34)cn2)CN(C2CCN(C(=O)c3cc(C(F)(F)F)ncc3Cl)CC2)C1` [Example 326, {1-{1-[5-chloro-2-(trifluoromethyl)isonicotinoyl]piperidin-4-yl}-3-[4-(5-fluoro-1H-pyrrolo[2,3-b]pyridin-4-yl)-1H-pyrazol-1-yl]azetidin-3-yl}acetonitrile] were 10 to 50 nM, 5 to 20 nM and 1.7.
Taken in the same sequence, the figures for `N#CCC1(n2cc(-c3c(F)cnc4[nH]ccc34)cn2)CN(C2CCN(C(=O)C3CCC(F)(F)CC3)CC2)C1` [Example 327, {1-{1-[(4,4-difluorocyclohexyl)carbonyl]piperidin-4-yl}-3-[4-(5-fluoro-1H-pyrrolo[2,3-b]pyridine-4-yl)-1H-pyrazol-1-yl]azetidin-3-yl}acetonitrile] were 50 to 100 nM, 5 to 20 nM and 4.1.
For the compound `N#CCC1(n2cc(-c3c(F)cnc4[nH]ccc34)cn2)CN(C2CCN(C(=O)Nc3ccc(F)cc3C(F)(F)F)CC2)C1` [Example 328, 4-{3-(Cyanomethyl)-3-[4-(5-fluoro-1H-pyrrolo[2,3-b]pyridin-4-yl)-1H-pyrazol-1-yl]azetidin-1-yl}-N-[4-fluoro-2-(trifluoromethyl)phenyl]piperidine-1-carboxamide], the IC50 was 10 to 50 nM against Jak2 (a.a. 828-1132) and no more than 5 nM in assay [1]. In addition, the “IC50 Ratio JAK2/JAK1” value in assay [2] is given as 12.9.
Taken in the same sequence, the figures for `N#CCC1(n2cc(-c3c(F)cnc4[nH]ccc34)cn2)CN(C2CCN(C(=O)Nc3ncccc3C(F)(F)F)CC2)C1` [Example 329, 4-{3-(cyanomethyl)-3-[4-(5-fluoro-1H-pyrrolo[2,3-b]pyridin-4-yl)-1H-pyrazol-1-yl]azetidin-1-yl}-N-[3-(trifluoromethyl)pyridin-2-yl]piperidine-1-carboxamide] were 50 to 100 nM, 5 to 20 nM and 4.5.
With `N#CCC1(n2cc(-c3c(F)cnc4[nH]ccc34)cn2)CN(C2CCN(C(=O)Nc3cnccc3C(F)(F)F)CC2)C1` [Example 330, 4-{3-(cyanomethyl)-3-[4-(5-fluoro-1H-pyrrolo[2,3-b]pyridin-4-yl)-1H-pyrazol-1-yl]azetidin-1-yl}-N-[4-(trifluoromethyl)pyridin-3-yl]piperidine-1-carboxamide], the IC50 against Jak2 (a.a. 828-1132) is 10 to 50 nM; in assay [1] it was no more than 5 nM. In addition, in assay [2], the “IC50 Ratio JAK2/JAK1” value worked out at 6.7.
Taken in the same sequence, the figures for `N#CCC1(n2cc(-c3c(F)cnc4[nH]ccc34)cn2)CN(C2CCN(C(=O)Nc3ccncc3C(F)(F)F)CC2)C1` [Example 331, 4-{3-(cyanomethyl)-3-[4-(5-fluoro-1H-pyrrolo[2,3-b]pyridin-4-yl)-1H-pyrazol-1-yl]azetidin-1-yl}-N-[3-(trifluoromethyl)pyridin-4-yl]piperidine-1-carboxamide] were 10 to 50 nM, no more than 5 nM and 10.8.
Taken in the same sequence, the figures for `N#CCC1(n2cc(-c3c(C#N)cnc4[nH]ccc34)cn2)CN(C2CCN(C(=O)c3ccnc(C(F)(F)F)c3F)CC2)C1` [Example 332, 4-[1-(3-(Cyanomethyl)-1-{1-[3-fluoro-2-(trifluoromethyl)isonicotinoyl]piperidin-4-yl}azetidin-3-yl)-1H-pyrazol-4-yl]-1H-pyrrolo[2,3-b]pyridine-5-carbonitrile] were 50 to 100 nM, no more than 5 nM and 19.3.
For `N#CCC1(n2cc(-c3c(C#N)cnc4[nH]ccc34)cn2)CN(C2CCN(C(=O)c3cc(F)cc(C#N)c3)CC2)C1` [Example 333, 4-{1-[1-[1-(3-cyano-5-fluorobenzoyl)piperidin-4-yl]-3-(cyanomethyl)azetidin-3-yl]-1H-pyrazol-4-yl}-1H-pyrrolo[2,3-b]pyridine-5-carbonitrile], the 50% inhibitory concentration (IC50) lay in the range of 50 to 100 nM against Jak2 (a.a. 828-1132) and 5 to 20 nM in assay [1]. Also, the “IC50 Ratio JAK2/JAK1” value in assay [2] turned out to be 8.8.
Taken in the same sequence, the figures for `N#CCC1(n2cc(-c3c(C#N)cnc4[nH]ccc34)cn2)CN(C2CCN(C(=O)c3ccc(C#N)c(F)c3)CC2)C1` [Example 334, 4-{1-[1-[1-(4-cyano-3-fluorobenzoyl)piperidin-4-yl]-3-(cyanomethyl)azetidin-3-yl]-1H-pyrazol-4-yl}-1H-pyrrolo[2,3-b]pyridine-5-carbonitrile] were greater than 100 nM, 20 to 30 nM and 4.3.
Take `N#CCC1(n2cc(-c3c(C#N)cnc4[nH]ccc34)cn2)CN(C2CCN(C(=O)c3cc(Br)ccc3Br)CC2)C1` [Example 335, 4-(1-{3-(cyanomethyl)-1-[1-(2,5-dibromobenzoyl)piperidin-4-yl]azetidin-3-yl}-1H-pyrazol-4-yl)-1H-pyrrolo[2,3-b]pyridine-5-carbonitrile]: the IC50 against Jak2 (a.a. 828-1132) is no more than 10 nM; in assay [1] it was no more than 5 nM. Moreover, the “IC50 Ratio JAK2/JAK1” value in assay [2] came out at 2.4.
Take `N#CCC1(n2cc(-c3c(C#N)cnc4[nH]ccc34)cn2)CN(C2CCN(C(=O)c3cc(Br)cc(Br)c3)CC2)C1` [Example 336, 4-(1-{3-(cyanomethyl)-1-[1-(3,5-dibromobenzoyl)piperidin-4-yl]azetidin-3-yl}-1H-pyrazol-4-yl)-1H-pyrrolo[2,3-b]pyridine-5-carbonitrile]: the half-maximal inhibitory concentration (IC50) against Jak2 (a.a. 828-1132) is no more than 10 nM; in assay [1], no more than 5 nM. Moreover, the “IC50 Ratio JAK2/JAK1” value in assay [2] was 2.9.
In the same order, the values of `N#CCC1(n2cc(-c3c(C#N)cnc4[nH]ccc34)cn2)CN(C2CCN(C(=O)c3cc(C#N)ccc3C#N)CC2)C1` [Example 337, 2-[(4-{3-(cyanomethyl)-3-[4-(5-cyano-1H-pyrrolo[2,3-b]pyridin-4-yl)-1H-pyrazol-1-yl]azetidin-1-yl}piperidin-1-yl)carbonyl]terephthalonitrile] are 10 to 50 nM, 5 to 20 nM and 6.0.
